The results in this text go back to ChEMBL document CHEMBL1759932, “Design, synthesis and structure-activity relationships of (indo-3-yl) heterocyclic derivatives as agonists of the CB1 receptor. Discovery of a clinical candidate” (Bioorg Med Chem Lett, 2011).

Data set [1] in a line: Half life in ICR mouse. It is filed as ADME, organism-based. The following applies: in vivo.
A short description of data set [2]: Volume of distribution at steady state in ICR mouse. In kind it is ADME, organism-based. The following applies: in vivo, read-out: Vdss.
Data set [3] can be described thus: Clearance in ICR mouse. It is filed as ADME, organism-based. The following applies: in vivo.
A short description of data set [4]: Ratio of Cmax in brain to plasma in ICR mouse. In kind it is ADME. The following applies: brain and plasma.
Data set [5] can be described thus: Intrinsic clearance in rat liver microsomes. It is filed as ADME, Microsome. Background: Liver microsomes are vesicles of endoplasmic reticulum, rich in cytochrome P450 enzymes.
A short description of data set [6]: Intrinsic clearance in human liver microsomes. It is filed as ADME, Microsome.
Data set [7] can be described thus: Clearance in Beagle dog. It is filed as ADME, organism-based, Canis lupus familiaris. The following applies: in vivo.
The nature of data set [8]: Volume of distribution at steady state in Wistar rat. It is filed as ADME, organism-based. The following applies: in vivo, read-out: Vdss.
Data set [9] in a line: Intrinsic clearance in dog hepatic microsomes. It is filed as ADME, Canis lupus familiaris, Liver, Microsome.
The nature of data set [10]: Volume of distribution at steady state in Beagle dog. It is filed as ADME, organism-based, Canis lupus familiaris. The following applies: in vivo, read-out: Vdss.
Data set [11] can be described thus: Half life in Wistar rat. It is filed as ADME, organism-based. The following applies: in vivo.
Data set [12] in a line: Intrinsic clearance in mouse hepatic microsomes. In kind it is ADME, Microsome. The following applies: liver microsomes.
A short description of data set [13]: Clearance in Wistar rat. It is filed as ADME, organism-based. The following applies: in vivo.
Data set [14] is described as follows: Half life in Beagle dog. In kind it is ADME, organism-based, Canis lupus familiaris. The following applies: in vivo.

Bounds are passed on as bounds.

In turn, `CCc1cccc2c(-c3nsc(CN4CCCC4)n3)cn(CC3CCCCC3)c12.Cl` yielded a half-life in data set [1] of 1.2 h. Besides, the Vd in data set [2] was determined as 1.4 L/kg. The clearance in data set [3] came out at 28 mL/min/kg. In addition, the Kp in [4] was determined as 0.05.

Take `COCCN(C)Cc1csc(-c2cn(CC3CCCCC3)c3c(Cl)cccc23)n1`: the microsomal CLint in [5] was determined as 22 µL/min/mg; in [6], 36 µL/min/mg.

Regarding `CN(CCO)Cc1csc(-c2cn(CC3CCOCC3)c3c(Cl)cccc23)n1`, the microsomal CLint in [5] is 167 µL/min/mg; in data set [6], under 16 µL/min/mg.

Regarding `CC(C)N(CCO)Cc1csc(-c2cn(CC3CCOCC3)c3c(Cl)cccc23)n1`, the clearance turned out to be 28 mL/min/kg in data set [7], 159 mL/min/kg in [3] and 127 mL/min/kg in [13]. Also, the Vd in [8] came to 15 L/kg; in [10], 5 L/kg; in [2], 11.3 L/kg. Besides, the CL in data set [9] turned out to be 0.131 mL/min/kg. Also, the half-life amounted to 1.6 h in [11], 1.38 h in [1] and 3 h in data set [14]. Moreover, the intrinsic metabolic clearance (microsomal CLint) was 176 µL/min/mg in [12], over 160 µL/min/mg in data set [5] and 161 µL/min/mg in [6]. In addition, the Kp in data set [4] came to 3.9.

As for `OC1CCN(Cc2csc(-c3cn(CC4CCOCC4)c4c(Cl)cccc34)n2)CC1`, the values for the microsomal CLint in data set [5] and in [6] were 16 µL/min/mg and 12 µL/min/mg, respectively.

With `COC1CCN(Cc2csc(-c3cn(CC4CCOCC4)c4c(Cl)cccc34)n2)CC1`, the microsomal CLint in data set [5] is over 270 µL/min/mg; in data set [6] it was 80.4 µL/min/mg.

As to `Clc1cccc2c(-c3nc(CN4CCOCC4)cs3)cn(CC3CCOCC3)c12`, the results for the microsomal CLint in [5] and in [6] were over 270 µL/min/mg and 97.9 µL/min/mg, respectively.

For the molecule `OCCN(CCO)Cc1csc(-c2cn(CC3CCOCC3)c3c(Cl)cccc23)n1`, the microsomal CLint in [5] was over 270 µL/min/mg; in data set [6] it was 111 µL/min/mg.

For `CCc1sc(-c2cn(CC3CCOCC3)c3c(Cl)cccc23)nc1CN(CC)CCO`, the microsomal CLint in [5] is over 270 µL/min/mg; in data set [6] it was 114 µL/min/mg.

For orientation: half-life means how long it takes for the measured level to halve. A higher half-life goes with slow decline. In general, clearance refers to the volume of plasma or blood freed of the substance per unit of time. By Kp is commonly meant tissue or fluid exposure divided by exposure in the circulation. As usually defined, the microsomal CLint is a measure of how fast metabolising enzymes remove a compound, apart from limits set by blood flow. A lower microsomal CLint goes with slow turnover.
